Assay results published in patent US20080027131A1, “USE OF BENZO-FUSED HETEROCYCLE SULFAMIDE DERIVATIVES FOR THE TREATMENT OF OBESITY” (priority 2005, published 2008).

Key:
[1] = system: AKR/J Obese Mice; assay: AKR/J Obese Mice In Vivo Assay (Example 13)
Protocol: AKR/J mice are known in the art to be susceptible to diet-induced obesity. (Rossmeisl M, Rim J S, Koza R A, Kozak L P. Diabetes. 2003 August; 52(8):1958-66.)
Male AKR/J mice (˜20 gram) at 4-5 weeks of age (Jackson Laboratories, Bar Harbor, Me.) were housed individually in a shoe-box cage at 21° C. with a 12-h light-dark cycle. The mice were fed with a high fat diet for 8 weeks to induce obesity. The composition of the diet by energy was 45% energy as fat, 20% as protein, and 35% as carbohydrate (Research Diets, D12451, New Brunswick, N.J.).
Obese mice with body weights between 35 and 46 grams were selected for the studies. Mice were randomized according to body weight into treatment groups at 13 weeks of age. The mice were orally gavaged once daily (0.2 ml at 1500-1700 hour) with vehicle control (0.5% methylcellulose, pH7.4) or vehicle containing Compound #8 (300 mg/kg). The body weights and food intake of the mice were monitored every few days. On day 11, the mice were anaesthetized with sodium pentobarbital (1 ml/kg, i.p, Sleepaway, Fort Dodge, Iowa). White adipose tissue (WAT) (retroperitoneal fat) and skeletal muscle (gastrocnemius and soleus muscle) were dissected and weighed.
Data shown below are expressed as mean and standard error calculated using 9-10 mice per treatment group. The 2 tailed Student's t-Tests were used for statistic analysis. All animal studies complied with the guideline of the Institutional Animal Care and Use Committee.

[2] = system: AKR/J mice; assay: Obesity In Vivo Assays in diet-induced obese AKR/J mice (Example 14, first study and second dose response study); conditions: for Intake of high fat diet (g) Day 0-3 / Intake of high fat diet (g) Day 4-7 / Weight loss (g) Day 4 / Weight loss (g) Day 8 / Weight loss (g) Day 10 / Brown Adipose Tissue / Epididymal fat / Muscle / Retroperitoneal fat / Total intake of high fat diet (g) Day 1-10 / Weight loss (g) Day 7: mean ± SE; for Ratio (fat/muscle): total weights of inguinal fat and retroperitoneal fat/muscle weight
From the text: Compound #8 was suspended in 0.5% Methocel using a hand held homogenizer to reduce the particle size and a magnetic stir bar and stir plate to keep the particles homogeneously suspended throughout the dosing period. 0.5% Hydroxypropyl Methylcellulose (Methocel) used as vehicle/control.
Male AKR/J mice weighing between 35 to 46 grams were used for weight loss studies. AKR/J mice are susceptible to diet-induced obesity. Male AKR/J mice (average body weight of about 20 grams) at 4 to 5 weeks of age (obtained from Jackson Laboratories, Bar Harbor, Me.) were group housed, five per cage, in a shoebox cage at 21° C. with a 12 h light dark cycle. All of the mice were quarantined for a period of one week before transfer to the animal procedure room. The mice were fed a high fat diet for 8 weeks to induce obesity. The composition of the diet by energy was 45% energy as fat, 20% as protein, and 35% as carbohydrate (obtained from Research Diets, D12451, New Brunswick, N.J.). As a non-obese control, an additional group of mice that were age- and weight-matched was fed with a low fat diet (obtained from Research Diets, D12450B, New Brunswick, N.J.). Only mice that developed obesity, defined as a body weight between 35 and 46 grams, were selected for the weight loss studies. Animals were separated and single housed at least three days prior to the drug treatments to allow acclimation to the new surroundings.
The assay comprised two separate studies: In the first study, 10 mice were given vehicle control of 0.5% Methocel; 10 mice were treated with 300 mg/kg Compound #8 in vehicle; and 10 mice were dosed as positive control with 10 mg/kg sibutramine (a weight loss agent) in vehicle. In the second study, 48 mice were allocated into 4 treatment groups of 12 mice each. The four groups were then treated with 0.5% Methocel (vehicle), 10 mg/kg Compound #8, 30 mg/kg Compound #8, and 100 mg/kg Compound #8 in vehicle, respectively.
The mice were orally gavaged once daily (at 1500-1700 hour) with vehicle control (0.5% methocel, pH7.4) or vehicle containing Compound #8 for 10 days. The dosing volume was 5 mL/kg body weight (0.2 mL for 40 gram mice). Body weight and food intake of mice were monitored periodically throughout the studies. On Day 11, the mice were fasted for 4 hr during light cycle (food was removed 0600-1000 hour). A necropsy was done 18 hours after last dosing. The mice were anaesthetized with sodium pentobarbital (1 ml/kg, intraperitoneal [i.p.] injection, SleepAway, Fort Dodge, Iowa) and blood was drawn via cardiac puncture using an 1 mL syringe and collected into heparinized tubes. […] Plasma samples were obtained by centrifuging whole blood at 2000˜3000 g for 10˜20 minutes at 4° C. and stored at −20° C. for further measurement of insulin, HDL, LDL, and total cholesterol and triglyceride.
Blood glucose levels were measured with a glucometer (OneTouch UltraSmart, Lifescan, Milpitas, Calif.) after collecting two microliters of blood through tail puncture. Plasma insulin concentrations were measured by using rat/mouse insulin enzyme-linked immunosorbent assay (ELISA) kit (EZRMI-13K, LINCO Research, St. Charles, Mo.). Blood samples were diluted 1:4 in charcoal stripped mouse serum that was included in the ELISA kit. The rest of the procedure followed the manufacturers instruction. The total fluorescence was detected using an Orion 1 Microplate Luminometer (Berthold Detection Systems, Pforzheim, Germany). Plasma total cholesterol, high density lipoprotein (HDL), low density lipoprotein (LDL) and triglyceride concentrations were measured by using a Bayer ADVIA 1650 blood chemistry analyzer (Bayer HealthCare LLC, Diagnostic Division, Tarrytown, N.Y.). […]

[3] = 300 mg/kg oral, 10-day treatment
[4] = first study, 300 mg/kg oral gavage once daily
[5] = first study, 300 mg/kg, after 10 days of dosing
[6] = second study, 10 mg/kg oral once daily
[7] = second study, 30 mg/kg oral once daily
[8] = second study, 100 mg/kg oral once daily
[9] = first study, 10 mg/kg, after 10 days of dosing
[10] = first study, positive control 10 mg/kg

`NS(=O)(=O)NCC1CCc2ccccc2O1` (stereo not shown) showed a melting point of 100 to 101 °C.
With `NS(=O)(=O)NC[C@H]1COc2cc(Cl)ccc2O1` [Compound #8, (2S)-(−)-N-(6-Chloro-2,3-dihydro-benzo[1,4]dioxin-2-ylmethyl)-sulfamide] the “Weight Loss” value ([1]; 300 mg/kg oral gavage once daily, 10-day treatment, mean ± standard error, 9-10 mice) was -3.3 ± 0.34 g, the “Food Intake (g) Day 4-10” value ([1]; 300 mg/kg oral gavage once daily, Day 4-10, mean ± standard error) was 16.2 ± 0.68 g and the “Retroperitoneal Fat Weight” value ([1]; 300 mg/kg oral gavage once daily, dissected day 11, mean ± standard error) was 0.47 ± 0.04 g. For the same molecule, the “Skeletal Muscle Weight” value ([1]; 300 mg/kg oral gavage once daily, gastrocnemius and soleus, day 11, mean ± standard error) was 0.30 ± 0.01 g, the “changes in skeletal muscle mass (in words)” value [1, 3] was “no significant changes” and the “decrease of fat to lean mass ratio (white adipose tissue/skeletal muscle) compared to vehicle treated mice” value [1, 3] was 16.8%. For the same molecule, the “reduction of retroperitoneal fat relative to vehicle treated mice” value [1, 3] was 26.6%, the “fat to lean mass ratio (white adipose tissue/skeletal muscle)” value ([1]; 300 mg/kg oral, 10-day treatment, vehicle 8.9±0.4, p<0.05) was 7.4±0.5 and the “weight loss compared to vehicle treated mice (in words)” value ([1]; 300 mg/kg oral, after 10-day treatment) was “greater weight loss”. For the same molecule, the “food intake relative to control animals (in words)” value ([1]; 300 mg/kg oral, day 4 to day 10) was “reduction of food intake”, the gastric emptying ([1]; 300 mg/kg oral, p<0.05) was “delay gastric emptying at a statistically significant level” and the “Intake of high fat diet (g) Day 0-3” value [2, 4] was 10.0 ± 0.4 g. For the same molecule, the “Intake of high fat diet (g) Day 4-7” value [2, 4] was 10.6 ± 0.4 g, the “Weight loss (g) Day 4” value [2, 4] was -0.3 ± 0.3 g and the “Weight loss (g) Day 8” value [2, 4] was -2.5 ± 0.3 g. For the same molecule, the “Weight loss (g) Day 10” value [2, 4] was -3.3 ± 0.3 g, the “weight loss compared with vehicle treated mice (in words)” value [2, 5] was “significant weight loss” and the “white adipose tissue weight compared with vehicle treatment (in words)” value [2, 5] was “reduced white adipose tissue weight”. For the same molecule, the “Brown Adipose Tissue” value [2, 5] was 0.22 ± 0.09 g, the “Epididymal fat” value [2, 5] was 1.73 ± 0.10 g and the “Muscle” value [2, 5] was 0.30 ± 0.01 g. For the same molecule, the “Retroperitoneal fat” value [2, 5] was 0.47 ± 0.04 g, the “food intake compared to vehicle (in words)” value ([2]; first study, 300 mg/kg, three days after treatment) was “Significant suppression of food intake” and the “Ratio (fat/muscle)” value ([2]; first study, 300 mg/kg) was 7.42 ± 0.54. For the same molecule, the “Total stomach content, measured at the end of the study” value ([2]; first study, 300 mg/kg, vehicle 0.16±0.02 g, p<0.05) was 0.27 ± 0.05 g, the “weight loss or food intake suppression (in words)” value ([2]; second dose response study, 10, 30, and 100 mg/kg) was “no significant (P>0.05) weight loss or food intake suppression” and the “Total intake of high fat diet (g) Day 1-10” value (shortened to “Total intake of high fat diet”) [2, 6] was 28 ± 0.5 g. The “Weight loss (g) Day 4” value [2, 6] was 0.1 ± 0.1 g, the “Weight loss (g) Day 7” value [2, 6] was 0.2 ± 0.2 g and the “Weight loss (g) Day 10” value [2, 6] was 0.3 ± 0.3 g. For the same molecule, the “Total intake of high fat diet” value [2, 7] was 28 ± 0.5 g, the “Weight loss (g) Day 4” value [2, 7] was 0.1 ± 0.1 g and the “Weight loss (g) Day 7” value [2, 7] was 0.0 ± 0.2 g. For the same molecule, the “Weight loss (g) Day 10” value [2, 7] was -0.4 ± 0.2 g, the “Total intake of high fat diet” value [2, 8] was 28 ± 0.6 g and the “Weight loss (g) Day 4” value [2, 8] was 0.2 ± 0.1 g. The “Weight loss (g) Day 7” value [2, 8] was 0.2 ± 0.3 g and the “Weight loss (g) Day 10” value [2, 8] was 0.1 ± 0.2 g.
In the case of `CC(C)CC(N(C)C)C1(c2ccc(Cl)cc2)CCC1` (stereo not shown) [Sibutramine, sibutramine, reference compound], the “food intake from day 0 to Day 3 (in words)” value ([2]; first study, 10 mg/kg) is reported as “reduction of food intake”, the “weight after 3 days treatment (in words)” value ([2]; first study, 10 mg/kg) is reported as “lost weight” and the “weight at the end of the study compared to control mice (in words)” value ([2]; first study, 10 mg/kg) is reported as “no difference in weight”. For the same molecule, the “Brown Adipose Tissue” value [2, 9] was 0.14 ± 0.01 g, the “Epididymal fat” value [2, 9] was 1.76 ± 0.11 g and the “Muscle” value [2, 9] was 0.31 ± 0.01 g. The “Retroperitoneal fat” value [2, 9] was 0.61 ± 0.07 g, the “Ratio (fat/muscle)” value ([2]; first study, 10 mg/kg) was 7.67 ± 0.59 and the “Intake of high fat diet (g) Day 0-3” value [2, 10] was 6.5 ± 0.3 g. The “Intake of high fat diet (g) Day 4-7” value [2, 10] was 14.4 ± 0.7 g, the “Weight loss (g) Day 4” value [2, 10] was -2.0 ± 0.2 g and the “Weight loss (g) Day 8” value [2, 10] was -1.2 ± 0.4 g. For the same molecule, the “Weight loss (g) Day 10” value [2, 10] was -1.2 ± 0.5 g.
